# Test results as given in patent US9890147B2 (BAYER PHARMA AKTIENGESELLSCHAFT, priority 2012, dated 2018).
# Experiments:
# [1] = molecular target: T1, BRD4 (BD1) (Homo sapiens, UniProt O60885); test: Binding assay BRD4/acetylated peptide H4 (TR-FRET protein-protein interaction assay)
# T1 construct: with relatively long constructs also being possible, preferably amino acids 44-168; made in house; host or cells: E. coli
# Procedure, shortened: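 His6-BRD4 BD1 (aa 67-152, E. coli), usually 10 nM, with biotinylated tetra-acetylated H4 peptide in HEPES pH 7.5 buffer; 11 compound concentrations 0.1 nM–20 μM in duplicate, 10 min preincubation, 1 h at 22 °C then ≥3 h at 4 °C. TR-FRET 665/620 ratio; IC50 by 4-parameter fit.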
# [2] = system: MOLM-13 cells; test: Cell proliferation assay (alamarBlue), MOLM-13; assay type: cell-based; details: Homo sapiens, 96 hours incubation, inhibition of cell proliferation
# Procedure, shortened: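 Cells in RPMI1640/10% FCS read by alamarBlue fluorescence (ex 530, em 590 nm) after overnight 37 °C incubation, then treated at 1E-5 to 1E-8 M for 96 h. Pre-treatment values subtracted from endpoint values and compared with buffer-only wells; IC50 is 50% proliferation inhibition.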
IC50 [1],IC50 [2],SMILES
110 nM,280 nM,"CCOc1cc2c(cc1OCC)C(c1ccc(-c3c(C)noc3C)cc1)=NN(C(=O)NC)C(C)C2 (racemic) [Example 161, (±)-1-[4-(3,5-Dimethylisoxazol-4-yl)phenyl]-7,8-diethoxy-N,4-dimethyl-4,5-dihydro-3H-2,3-benzodiazepine-3-carboxamide]"
130 nM,380 nM,"CNC(=O)N1N=C(c2ccc(-c3c(C)noc3C)cc2)c2cc(OC)c(OC(F)F)cc2CC1C (racemic) [Example 162, (±)-7-(difluoromethoxy)-1-[4-(3,5-dimethylisoxazol-4-yl)phenyl]-8-methoxy-N,4-dimethyl-4,5-dihydro-3H-2,3-benzodiazepine-3-carboxamide]"
60 nM,210 nM,"CNC(=O)N1N=C(c2ccc(N3CCN(C)CC3)cc2)c2cc(OC)c(OC(F)F)cc2CC1C (racemic) [Example 163, (±)-7-(difluoromethoxy)-8-methoxy-N,4-dimethyl-1-[4-(4-methylpiperazin-1-yl)phenyl]-4,5-dihydro-3H-2,3-benzodiazepine-3-carboxamide]"
60 nM,580 nM,"CNC(=O)N1N=C(c2ccc(Cl)cc2)c2cc(OCCCN3CCN(C)CC3)ccc2CC1C (racemic) [Example 164, (±)-1-(4-chlorophenyl)-N,4-dimethyl-8-[3-(4-methylpiperazin-1-yl)propoxy]-4,5-dihydro-3H-2,3-benzodiazepine-3-carboxamide]"
130 nM,880 nM,"CNC(=O)N1N=C(c2ccc(Cl)cc2)c2cc(OCCCN3CCOCC3)ccc2CC1C (racemic) [Example 165, (±)-1-(4-chlorophenyl)-N,4-dimethyl-8-[3-(morpholin-4-yl)propoxy]-4,5-dihydro-3H-2,3-benzodiazepine-3-carboxamide]"
270 nM,670 nM,"CNC(=O)N1N=C(c2ccc(Cl)cc2)c2cc(OCCN3CCN(C)CC3)ccc2CC1C (racemic) [Example 166, (±)-1-(4-chlorophenyl)-N,4-dimethyl-8-[2-(4-methylpiperazin-1-yl)ethoxy]-4,5-dihydro-3H-2,3-benzodiazepine-3-carboxamide]"
70 nM,520 nM,"CNC(=O)N1N=C(c2ccc(-c3c(C)noc3C)cc2)c2cc(OC)c(C#N)cc2CC1C (racemic) [Example 170, (±)-7-Cyano-1-[4-(3,5-dimethylisoxazol-4-yl)phenyl]-8-methoxy-N,4-dimethyl-4,5-dihydro-3H-2,3-benzodiazepine-3-carboxamide]"
120 nM,1910 nM,"CNC(=O)N1N=C(c2ccc(N3CCOCC3)cc2)c2cc(NC(C)=O)ccc2CC1C (racemic) [Example 171, (±)-8-Acetamido-N,4-dimethyl-1-[4-(morpholin-4-yl)phenyl]-4,5-dihydro-3H-2,3-benzodiazepine-3-carboxamide]"
130 nM,1910 nM,"CNC(=O)N1N=C(c2ccc(N3CCN(C)CC3)cc2)c2cc(NC(C)=O)ccc2CC1C (racemic) [Example 172, (±)-8-Acetamido-N,4-dimethyl-1-[4-(4-methylpiperazin-1-yl)phenyl]-4,5-dihydro-3H-2,3-benzodiazepine-3-carboxamide]"
180 nM,1210 nM,"CNC(=O)N1N=C(c2ccc(-c3c(C)noc3C)cc2)c2cc(NC(C)=O)ccc2CC1C (racemic) [Example 173, (±)-8-Acetamido-1-[4-(3,5-dimethylisoxazol-4-yl)phenyl]-N,4-dimethyl-4,5-dihydro-3H-2,3-benzodiazepine-3-carboxamide]"
190 nM,440 nM,"CNC(=O)N1N=C(c2ccc(-c3c(C)noc3C)cc2)c2cc(-n3nc(C)cc3C)ccc2CC1C (racemic) [Example 175, (±)-1-[4-(3,5-Dimethylisoxazol-4-yl)phenyl]-8-(3,5-dimethyl-1H-pyrazol-1-yl)-N,4-dimethyl-4,5-dihydro-3H-2,3-benzodiazepine-3-carboxamide]"
40 nM,520 nM,"CNC(=O)N1N=C(c2ccc(-c3c(C)noc3C)cc2)c2cc(N3CCOCC3)ccc2CC1C (racemic) [Example 176, (±)-1-[4-(3,5-Dimethylisoxazol-4-yl)phenyl]-N,4-dimethyl-8-(morpholin-4-yl)-4,5-dihydro-3H-2,3-benzodiazepine-3-carboxamide]"
70 nM,180 nM,"CNC(=O)N1N=C(c2ccc(N3CCN(CCO)CC3)cc2)c2cc(OC)c(OC)cc2CC1C (racemic) [Example 178, (±)-1-{4-[4-(2-hydroxyethyl)piperazin-1-yl]phenyl}-7,8-dimethoxy-N,4-dimethyl-4,5-dihydro-3H-2,3-benzodiazepine-3-carboxamide]"
70 nM,290 nM,"CNC(=O)N1N=C(c2ccc(N3CCC(OC)CC3)cc2)c2cc(OC)c(OC)cc2CC1C (racemic) [Example 179, (±)-7,8-dimethoxy-1-[4-(4-methoxypiperidin-1-yl)phenyl]-N,4-dimethyl-4,5-dihydro-3H-2,3-benzodiazepine-3-carboxamide]"
70 nM,370 nM,"CNC(=O)N1N=C(c2ccc(N3CCC(N(C)C)CC3)cc2)c2cc(OC)c(OC)cc2CC1C (racemic) [Example 180, (±)-1-{4-[4-(dimethylamino)piperidin-1-yl]phenyl}-7,8-dimethoxy-N,4-dimethyl-4,5-dihydro-3H-2,3-benzodiazepine-3-carboxamide]"
50 nM,400 nM,"CNC(=O)N1N=C(c2ccc(N3CCC(NC(C)=O)CC3)cc2)c2cc(OC)c(OC)cc2CC1C (racemic) [Example 182, (±)-1-[4-(4-acetamidopiperidin-1-yl)phenyl]-7,8-dimethoxy-N,4-dimethyl-4,5-dihydro-3H-2,3-benzodiazepine-3-carboxamide]"
90 nM,80 nM,"CNC(=O)N1N=C(c2ccc(N3CC[C@H](O)C3)cc2)c2cc(OC)c(OC)cc2CC1C (mixture of isomers) [Example 190, (±)-1-{4-[(3S)-3-hydroxypyrrolidin-1-yl]phenyl}-7,8-dimethoxy-N,4-dimethyl-4,5-dihydro-3H-2,3-benzodiazepine-3-carboxamide]"
70 nM,170 nM,"CNC(=O)N1N=C(c2ccc(N3CCC(C)(NC(=O)OC(C)(C)C)CC3)cc2)c2cc(OC)c(OC)cc2CC1C (racemic) [Example 191, (±)-tert-butyl (1-{4-[7,8-dimethoxy-4-methyl-3-(methylcarbamoyl)-4,5-dihydro-3H-2,3-benzodiazepin-1-yl]phenyl}-4-methylpiperidin-4-yl)carbamate]"
90 nM,270 nM,"CNC(=O)N1N=C(c2ccc(N3C[C@@H](C)NC[C@@H]3C)cc2)c2cc(OC)c(OC)cc2CC1C (mixture of isomers) [Example 192, (±)-1-{4-[(2S,5R)-2,5-dimethylpiperazin-1-yl]phenyl}-7,8-dimethoxy-N,4-dimethyl-4,5-dihydro-3H-2,3-benzodiazepine-3-carboxamide]"
90 nM,110 nM,"CNC(=O)N1N=C(c2ccc(N3CCN(CC(F)F)CC3)cc2)c2cc(OC)c(OC)cc2CC1C (racemic) [Example 193, (±)-1-{4-[4-(2,2-difluoroethyl)piperazin-1-yl]phenyl}-7,8-dimethoxy-N,4-dimethyl-4,5-dihydro-3H-2,3-benzodiazepine-3-carboxamide]"
500 nM,180 nM,"CCOc1cc2c(cc1OCC)C(c1ccc(N3CCN(C)CC3)cc1)=NN(C(=O)NC)C(C)C2 (racemic) [Example 200, (±)-7,8-Diethoxy-N,4-dimethyl-1-[4-(4-methylpiperazin-1-yl)phenyl]-4,5-dihydro-3H-2,3-benzodiazepine-3-carboxamide]"
840 nM,3310 nM,"CCC1Cc2cc(OC)c(OC)cc2C(c2ccc(N3CCN(S(C)(=O)=O)CC3)cc2)=NN1C(=O)NC (racemic) [Example 203, (±)-4-ethyl-7,8-dimethoxy-N-methyl-1-{4-[4-(methylsulphonyl)piperazin-1-yl]phenyl}-4,5-dihydro-3H-2,3-benzodiazepine-3-carboxamide]"
250 nM,170 nM,"CNC(=O)N1N=C(c2ccc(N3CCS(=O)(=O)CC3)cc2)c2cc(Cl)c(OC(F)(F)F)cc2CC1C (racemic) [Example 210, (±)-8-chloro-1-[4-(1,1-dioxidothiomorpholin-4-yl)phenyl]-N,4-dimethyl-7-(trifluoromethoxy)-4,5-dihydro-3H-2,3-benzodiazepine-3-carboxamide]"
310 nM,820 nM,"CNC(=O)N1N=C(c2ccc(N3CCC(O)CC3)cc2)c2cc(Cl)c(OC(F)(F)F)cc2CC1C (racemic) [Example 212, (±)-8-chloro-1-[4-(4-hydroxypiperidin-1-yl)phenyl]-N,4-dimethyl-7-(trifluoromethoxy)-4,5-dihydro-3H-2,3-benzodiazepine-3-carboxamide]"
360 nM,860 nM,"CNC(=O)N1N=C(c2ccc(N3CCN(C)CC3)cc2)c2cc(Cl)c(OC(F)(F)F)cc2CC1C (racemic) [Example 213, (±)-8-chloro-N,4-dimethyl-1-[4-(4-methylpiperazin-1-yl)phenyl]-7-(trifluoromethoxy)-4,5-dihydro-3H-2,3-benzodiazepine-3-carboxamide]"
380 nM,2270 nM,"CNC(=O)N1N=C(c2ccc(N3CCS(=O)(=O)CC3)cc2)c2cc(N3CCS(=O)(=O)CC3)c(OC(F)(F)F)cc2CC1C (racemic) [Example 215, (±)-8-(1,1-dioxidothiomorpholin-4-yl)-1-[4-(1,1-dioxidothiomorpholin-4-yl)phenyl]-N,4-dimethyl-7-(trifluoromethoxy)-4,5-dihydro-3H-2,3-benzodiazepine-3-carboxamide]"
